{"source": "paper PMC11353420", "about": "“Anti-Inflammatory, Cytotoxic, and Genotoxic Effects of Soybean Oligopeptides Conjugated with Mannose” (Foods, 2024)", "key": {"[1]": {"experiment": "SRB cytotoxicity assay, 3T3-L1 mature adipocytes", "assay_type": "cell-based, murine", "conditions": "mouse; 3T3-L1 Mature-adipocytes, 48 h, SRB", "description": "(§1) The pre-adipocyte 3T3-L1 cell line was differentiated to become mature adipocytes by culturing the cells to 100% confluence in 10% calf serum DMEM (CS medium), as Day 0 in a 96 well-plate. After post-confluence, the cells were incubated with the induction medium as a differentiation initiation medium (DMEM […] 1 μM DEX, 0.5 mM IBMX, 167 nM insulin, and 10% FBS) for 3 days (Days 1–3). After that, cells were cultured in a differentiation medium as an adipogenic differentiation medium (differentiation media: DMEM containing 167 nM insulin and 10% FBS) for 3 days (Days 4–6). Finally, maturation was induced in an induced-lipid accumulation medium (maturation media: DMEM containing 167 nM insulin and 10% FBS) for 6 days (Days 7–12). The mature adipocytes were then used for toxicity testing.\n(§2) The cytotoxicity of the oligopeptide and its conjugated forms on HepG2, HEK293, LX-2, and RAW 264.7 cells, pre- and mature 3T3-L1 adipocytes, and hPBMCs was analyzed by a sulforhodamine (SRB) assay to obtain their non-toxic concentration for further experiments and as screening data for their in vitro safety. The cells were plated for 12 h in 96-well plates and then treated with the oligopeptide and its conjugated sugar at a concentration of 0–1000 µg/mL for 48 h. Dimethyl sulfoxide (DMSO) was used as a vehicle control (the untreated control). At the indicated time, the cells were then fixed and subjected to an SRB assay. The absorbance was measured at 510 nm by spectrophotometry (Gen5, BioTek, Winooski, VT, USA), and the cell viability was calculated as the ratio of the treatment versus untreated control. The data are represented as the mean ± standard deviation of three replicates and are expressed relative to the untreated control. The percentage of cell survival was calculated as follows:% cell survival = (Abs_extract/Abs_control) × 100"}, "3T3-L1 Mature-adipocytes": {"tested_on": "3T3-L1 Mature-adipocytes", "experiment": "SRB cytotoxicity assay, 3T3-L1 mature adipocytes", "assay_type": "cell-based, murine", "conditions": "48 h", "description": "as §1, §2"}, "[2]": {"experiment": "SRB cytotoxicity assay, HepG2", "assay_type": "cell-based, human", "conditions": "human, HepG2 cells; HepG2, 48 h, SRB", "source_text": "(§3) HEK293 (Human embryonic kidney cell line), HepG2 (Human liver carcinoma cell line), LX-2 (Human hepatic stellate cell line), and 3T3-L1 (Murine preadipocyte cell line) cells were obtained from the American Type Culture Collection (ATCC), Bethesda, MD, USA."}, "[3]": {"tested_on": "HepG2 (Human liver carcinoma cell line)", "experiment": "SRB cytotoxicity assay, HepG2", "assay_type": "cell-based", "source_text": "as §3"}, "[4]": {"experiment": "SRB cytotoxicity assay, LX-2", "assay_type": "cell-based, human", "conditions": "human, LX-2 cells; LX-2, 48 h, SRB", "source_text": "as §3"}, "[5]": {"tested_on": "LX-2 (Human hepatic stellate cell line)", "experiment": "SRB cytotoxicity assay, LX-2", "assay_type": "cell-based", "source_text": "as §3"}, "iNOS": {"tested_on": "iNOS", "experiment": "iNOS protein level by immunoblotting in LPS-treated RAW 264.7", "assay_type": "cell-based, murine", "conditions": "100, 200, 400 µg/mL, LPS 1 µg/mL 24 h", "description": "RAW 264.7 macrophage cells were pretreated with various concentrations of the oligopeptide and its conjugated forms (100, 200, 400 µg/mL) for an hour and then incubated with LPS (1 µg/mL) for a further 24 h (at 37 °C in a 5% CO2 humidified atmosphere). The cells were then collected to investigate the iNOS and COX-2 protein levels. Cell lysate was prepared to obtain the protein samples. The samples were subjected to 10% sodium dodecyl sulfate polyacrylamide gel electrophoresis (SDS-PAGE). The separated proteins were electrically transferred to a nitrocellulose membrane. The target proteins were probed with specific antibodies, including anti-COX-2 antibody (Cell signaling, Danvers, MA, USA), anti-iNOS antibody (Merck, Rahway, NJ, USA), and anti-β-actin antibody (Sigma, St. Louis, MO, USA). Protein detection was performed using a chemiluminescence reagent (Bio-Rad Laboratories, Watford, UK)."}, "[6]": {"tested_on": "Salmonella typhimurium strain TA98", "experiment": "Salmonella mutation assay (Ames test), TA98", "assay_type": "cell-based", "description": "Overnight bacterial cultures were mixed with various doses of test compounds with (+S9) or without (−S9) and incubated at 37 °C for 20 min. The top agar was added and then poured onto a plate of minimal glucose agar. The plates were incubated at 37 °C for 48 h. The number of revertant colonies was counted and the mutagenic index (MI) was calculated. 2-aminoanthracene (2-AA) and 2-(2-furyl)-3-(5-nitro-2-furyl)-acrylamide (AF-2) were used as positive mutagens in the presence and absence of S9."}, "Hemolysis assay": {"experiment": "Hemolysis assay", "assay_type": "cell-based, human", "conditions": "human, 5% red blood cell suspension; 800 µg/mL, 5% RBCs, 37 °C, 3 h; read-out: % Hemolysis (n = 5)", "source_text": "As described by Karinchai et al., human peripheral blood mononuclear cells (PBMCs) and red blood cells (RBCs) were isolated from human blood samples [41]. Human blood samples of healthy subjects obtained from Maharaj Hospital, Chiang Mai, Thailand, were anonymized and kept in a heparinized tube by the laboratory. RBCs were collected and used to determined hemolysis induction by a hemolysis assay. Ficoll-Hypaque solution was used to isolate PBMCs, as described in the manufacturer’s instructions. A certificate of exemption by the Research Ethics Committee of the Faculty of Medicine, Chiang Mai University (No. EXEMPTION 8989/2022), was granted. Consent to participate was not applicable as all data were anonymized. All methods were carried out in accordance with relevant guidelines and regulations.\nThe hemolytic effect of the oligopeptide and its conjugated forms was determined by hemolysis assay. Briefly, the 5% RBCs suspension was mixed with various concentrations of the samples and further incubated at 37 °C for 3 h. The hemolysis induction by the compounds was measured as described previously. The hemolytic effect of each compound was interpreted using the following guidelines: 0–10% hemolysis is non-hemolysis, 10–25% hemolysis is slight hemolysis induction, and >25% hemolysis is high hemolysis induction."}}, "data": [{"smiles": "OC[C@H]1OC(O)[C@@H](O)[C@@H](O)[C@@H]1O", "note": "(stereo partly drawn) [Man, D-mannose]", "values": [{"measurement": "IC20 at 48 h", "setting": "[1]", "result": "> 1000", "unit": "µg/mL"}, {"measurement": "IC50", "setting": "3T3-L1 Mature-adipocytes; Mus musculus, 3T3-L1 Mature-adipocytes, SRB, read-out: IC50", "result": "> 1000", "unit": "µg/mL"}, {"measurement": "toxicity to cells", "setting": "3T3-L1 Mature-adipocytes; mature-3T3-L1, up to 1000 µg/mL", "result": "not toxic"}, {"measurement": "IC20 at 48 h", "setting": "[2]", "result": "> 1000", "unit": "µg/mL"}, {"measurement": "toxicity to cells", "setting": "[3]; HepG2, up to 1000 µg/mL, 48 h", "result": "not toxic"}, {"measurement": "IC50", "setting": "[3]; Homo sapiens, HepG2, 48 h, SRB, read-out: IC50", "result": "> 1000", "unit": "µg/mL"}, {"measurement": "IC20 at 48 h", "setting": "[4]", "result": "> 1000", "unit": "µg/mL"}, {"measurement": "IC50", "setting": "[5]; Homo sapiens, LX-2, 48 h, SRB, read-out: IC50", "result": "> 1000", "unit": "µg/mL"}, {"measurement": "toxicity to cells", "setting": "[5]; LX-2, up to 1000 µg/mL, 48 h", "result": "not toxic"}, {"measurement": "effect on iNOS protein level", "setting": "iNOS", "result": "did not affect"}, {"measurement": "His^+ Revertant Colonies per Plate", "setting": "[6]; TA98, +S9, 0.04 mg per plate", "result": "37.7 ± 5.7"}, {"measurement": "His^+ Revertant Colonies per Plate", "setting": "[6]; TA98, +S9, 0.2 mg per plate", "result": "37.8 ± 3.8"}, {"measurement": "His^+ Revertant Colonies per Plate", "setting": "[6]; TA98, +S9, 1 mg per plate", "result": "36.5 ± 7.5"}, {"measurement": "His^+ Revertant Colonies per Plate", "setting": "[6]; TA98, +S9, 5 mg per plate", "result": "38.5 ± 7.8"}, {"measurement": "mutagenicity", "setting": "[6]; TA98, presence and absence of the S9 mix", "result": "did not cause any mutagenicity"}, {"measurement": "His^+ Revertant Colonies per Plate", "setting": "[6]; TA98, −S9, 0.04 mg per plate", "result": "30.5 ± 2.5"}, {"measurement": "His^+ Revertant Colonies per Plate", "setting": "[6]; TA98, −S9, 0.2 mg per plate", "result": "30.8 ± 4.8"}, {"measurement": "His^+ Revertant Colonies per Plate", "setting": "[6]; TA98, −S9, 1 mg per plate", "result": "27.8 ± 6.5"}, {"measurement": "His^+ Revertant Colonies per Plate", "setting": "[6]; TA98, −S9, 5 mg per plate", "result": "28.7 ± 6.0"}, {"measurement": "hemolysis at 3 h, 800 µg/mL", "setting": "Hemolysis assay", "result": "1.84 ± 0.42", "unit": "%"}]}]}
